Assay results taken from the supplement of paper PMC10307832.

Legend:
Test in all cases: relative viability (nuclei count vs DMSO), 5 days (fraction); higher = more cells survive
RERF-LC-KJ = tested on: RERF-LC-KJ
Outline: (§1)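 Relative viability is defined as nuclei in treated wells over nuclei in vehicle wells. Duplicate plates were run and medians reported. Lung cancer cell lines in 1536-well plates were dosed by pin tool one day after seeding, with one drug or with a fixed anchor-drug dose plus five library-drug doses (not always all listed) in √10 steps, and nuclei were counted after 5 days.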

HCC-78 = tested on: HCC-78
Outline: as §1

NCI-H2405 = tested on: NCI-H2405
Outline: as §1

EMC-BAC-2 = tested on: EMC-BAC-2
Outline: as §1

EKVX = tested on: EKVX
Outline: as §1

ChaGo-K-1 = tested on: ChaGo-K-1
Outline: as §1

NCI-H23 = tested on: NCI-H23
Outline: as §1

SW 1573 = tested on: SW 1573
Outline: as §1

NCI-H1975 = tested on: NCI-H1975
Outline: as §1

NCI-H1563 = tested on: NCI-H1563
Outline: as §1

LCLC-103H = tested on: LCLC-103H
Outline: as §1

LU99A = tested on: LU99A
Outline: as §1

NCI-H2126 = tested on: NCI-H2126
Outline: as §1

NCI-H322M = tested on: NCI-H322M
Outline: as §1

PC-14 = tested on: PC-14
Outline: as §1

EPLC-272H = tested on: EPLC-272H
Outline: as §1

LXF-289 = tested on: LXF-289
Outline: as §1

SK-LU-1 = tested on: SK-LU-1
Outline: as §1

NCI-H1666 = tested on: NCI-H1666
Outline: as §1

HCC-827 = tested on: HCC-827
Outline: as §1

O=c1cc(N2CCOCC2)oc2c(-c3cccc4c3sc3ccccc34)cccc12 + CC(C)C[C@H](NC(=O)[C@H](Cc1ccccc1)NC(=O)c1cnccn1)B(O)O [Bortezomib] (partner 0.002 µM)
relative viability (RERF-LC-KJ; first compound 0.01 µM): 1.1
relative viability (RERF-LC-KJ; first compound 0.03162 µM): 1.12
relative viability (RERF-LC-KJ; first compound 0.1 µM): 1.13
relative viability (RERF-LC-KJ; first compound 0.3162 µM): 1.22
relative viability (RERF-LC-KJ; first compound 1 µM): 1.09
relative viability (HCC-78; first compound 0.01 µM): 0.544
relative viability (HCC-78; first compound 0.03162 µM): 0.467
relative viability (HCC-78; first compound 0.1 µM): 0.566
relative viability (HCC-78; first compound 0.3162 µM): 0.482
relative viability (HCC-78; first compound 1 µM): 0.468
relative viability (NCI-H2405; first compound 0.01 µM): 1.01
relative viability (NCI-H2405; first compound 0.03162 µM): 0.941
relative viability (NCI-H2405; first compound 0.1 µM): 1.03
relative viability (NCI-H2405; first compound 0.3162 µM): 0.987
relative viability (NCI-H2405; first compound 1 µM): 0.988
relative viability (EMC-BAC-2; first compound 0.01 µM): 1.06
relative viability (EMC-BAC-2; first compound 0.03162 µM): 1.09
relative viability (EMC-BAC-2; first compound 0.1 µM): 1.15
relative viability (EMC-BAC-2; first compound 0.3162 µM): 1.11
relative viability (EMC-BAC-2; first compound 1 µM): 1.02
relative viability (EKVX; first compound 0.01 µM): 1.03
relative viability (EKVX; first compound 0.03162 µM): 1.09
relative viability (EKVX; first compound 0.1 µM): 1.02
relative viability (EKVX; first compound 0.3162 µM): 1.11
relative viability (EKVX; first compound 1 µM): 1.05
relative viability (ChaGo-K-1; first compound 0.01 µM): 0.64
relative viability (ChaGo-K-1; first compound 0.03162 µM): 0.915
relative viability (ChaGo-K-1; first compound 0.1 µM): 0.897
relative viability (ChaGo-K-1; first compound 0.3162 µM): 1.04
relative viability (ChaGo-K-1; first compound 1 µM): 0.977
relative viability (NCI-H23; first compound 0.01 µM): 1.13
relative viability (NCI-H23; first compound 0.03162 µM): 1.08
relative viability (NCI-H23; first compound 0.3162 µM): 1.01
relative viability (NCI-H23; first compound 1 µM): 0.946
relative viability (SW 1573; first compound 0.01 µM): 1.32
relative viability (SW 1573; first compound 0.03162 µM): 0.985
relative viability (SW 1573; first compound 0.1 µM): 1.07
relative viability (SW 1573; first compound 0.3162 µM): 1.12
relative viability (SW 1573; first compound 1 µM): 0.952
relative viability (NCI-H1975; first compound 0.01 µM): 0.384
relative viability (NCI-H1975; first compound 0.03162 µM): 0.387
relative viability (NCI-H1975; first compound 0.1 µM): 0.479
relative viability (NCI-H1975; first compound 0.3162 µM): 0.349
relative viability (NCI-H1975; first compound 1 µM): 0.372
relative viability (NCI-H1563; first compound 0.01 µM): 1
relative viability (NCI-H1563; first compound 0.03162 µM): 0.809
relative viability (NCI-H1563; first compound 0.1 µM): 0.9
relative viability (NCI-H1563; first compound 0.3162 µM): 0.734
relative viability (NCI-H1563; first compound 1 µM): 0.762
relative viability (LCLC-103H; first compound 0.01 µM): 1.16
relative viability (LCLC-103H; first compound 0.03162 µM): 1.04
relative viability (LCLC-103H; first compound 0.1 µM): 0.954
relative viability (LCLC-103H; first compound 0.3162 µM): 1.04
relative viability (LCLC-103H; first compound 1 µM): 0.877
relative viability (LU99A; first compound 0.01 µM): 1.25
relative viability (LU99A; first compound 0.03162 µM): 1.11
relative viability (LU99A; first compound 0.1 µM): 1.19
relative viability (LU99A; first compound 0.3162 µM): 1.03
relative viability (LU99A; first compound 1 µM): 1.29
relative viability (NCI-H2126; first compound 0.01 µM): 1.14
relative viability (NCI-H2126; first compound 0.03162 µM): 1.11
relative viability (NCI-H2126; first compound 0.1 µM): 1.13
relative viability (NCI-H2126; first compound 0.3162 µM): 1.06
relative viability (NCI-H2126; first compound 1 µM): 1.14
relative viability (NCI-H322M; first compound 0.01 µM): 1.24
relative viability (NCI-H322M; first compound 0.03162 µM): 1.39
relative viability (NCI-H322M; first compound 0.3162 µM): 1.19
relative viability (NCI-H322M; first compound 1 µM): 1.03
relative viability (PC-14; first compound 0.01 µM): 0.954
relative viability (PC-14; first compound 0.03162 µM): 0.763
relative viability (PC-14; first compound 0.1 µM): 0.868
relative viability (PC-14; first compound 0.3162 µM): 0.772
relative viability (PC-14; first compound 1 µM): 0.864
relative viability (EPLC-272H; first compound 0.01 µM): 0.903
relative viability (EPLC-272H; first compound 0.03162 µM): 0.916
relative viability (EPLC-272H; first compound 0.3162 µM): 0.854
relative viability (EPLC-272H; first compound 1 µM): 0.935
relative viability (LXF-289; first compound 0.01 µM): 1.01
relative viability (LXF-289; first compound 0.03162 µM): 0.967
relative viability (LXF-289; first compound 0.1 µM): 1.1
relative viability (LXF-289; first compound 0.3162 µM): 1.03
relative viability (LXF-289; first compound 1 µM): 1.05
relative viability (SK-LU-1; first compound 0.01 µM): 1.15
relative viability (SK-LU-1; first compound 0.03162 µM): 1.36
relative viability (SK-LU-1; first compound 0.3162 µM): 1.5
relative viability (SK-LU-1; first compound 1 µM): 1.17
relative viability (NCI-H1666; first compound 0.01 µM): 0.678
relative viability (NCI-H1666; first compound 0.03162 µM): 0.804
relative viability (NCI-H1666; first compound 0.1 µM): 0.909
relative viability (NCI-H1666; first compound 0.3162 µM): 0.703
relative viability (NCI-H1666; first compound 1 µM): 0.751
relative viability (HCC-827; first compound 0.01 µM): 1.02
relative viability (HCC-827; first compound 0.03162 µM): 0.976
relative viability (HCC-827; first compound 0.1 µM): 1.04
relative viability (HCC-827; first compound 0.3162 µM): 1.06
relative viability (HCC-827; first compound 1 µM): 1.02
